In brackets after ≈: the same amount, converted by molar mass.
Assays:
Assay type in all cases: functional
Streptococcus pneumoniae [1] = assay: Antimicrobial activity against Streptococcus pneumoniae WB4 by broth macrodilution method
Streptococcus pneumoniae [2] = assay: Antimicrobial activity in Streptococcus pneumoniae WB4 infected New Zealand white rabbit meningitis model assessed as decrease in viable cells in CSF at 15 mg/kg after 8 hrs
Streptococcus pneumoniae [3] = assay: Antimicrobial activity in Streptococcus pneumoniae WB4 infected New Zealand white rabbit meningitis model assessed as increase in [3H]choline release in CSF at 15 mg/kg after 4 hrs
Streptococcus pneumoniae [4] = assay: Antimicrobial activity in Streptococcus pneumoniae WB4 infected New Zealand white rabbit meningitis model assessed as decrease in viable cells in CSF at 125 mg/kg after 8 hrs
Streptococcus pneumoniae [5] = assay: Antimicrobial activity in Streptococcus pneumoniae WB4 infected New Zealand white rabbit meningitis model assessed as increase in [3H]choline release in CSF at 125 mg/kg after 4 to 6 hrs

Row | Structure (SMILES) | MIC (Streptococcus pneumoniae [1]) [µg/mL] | log10CFU/ml (Streptococcus pneumoniae [2]) | Activity (Streptococcus pneumoniae [3]) [cpm/min] | log10CFU/ml (Streptococcus pneumoniae [4]) | Activity (Streptococcus pneumoniae [5]) [cpm/min]
1 | CN[C@H](CC(C)C)C(=O)N[C@H]1C(=O)N[C@@H](CC(N)=O)C(=O)N[C@H]2C(=O)N[C@H]3C(=O)N[C@H](C(=O)N[C@H](C(=O)O)c4cc(O)cc(O)c4-c4cc3ccc4O)[C@H](O)c3ccc(c(Cl)c3)Oc3cc2cc(c3O[C@@H]2O[C@H](CO)[C@@H](O)[C@H](O)[C@H]2O[C@H]2C[C@](C)(N)[C@H](O)[C@H](C)O2)Oc2ccc(cc2Cl)[C@H]1O [VANCOMYCIN] | 0.12 (≈ 0.0828 µM) |  |  |  | 
2 | COc1c(N2C[C@@H]3CCCN[C@@H]3C2)c(F)cc2c(=O)c(C(=O)O)cn(C3CC3)c12 [MOXIFLOXACIN] | 0.12 (≈ 0.299 µM) |  |  |  | 
3 | CCCCCCCCCC(=O)N[C@@H](Cc1c[nH]c2ccccc12)C(=O)N[C@H](CC(N)=O)C(=O)N[C@@H](CC(=O)O)C(=O)N[C@@H]1C(=O)NCC(=O)N[C@@H](CCCN)C(=O)N[C@@H](CC(=O)O)C(=O)N[C@H](C)C(=O)N[C@@H](CC(=O)O)C(=O)NCC(=O)N[C@H](CO)C(=O)N[C@@H]([C@H](C)CC(=O)O)C(=O)N[C@@H](CC(=O)c2ccccc2N)C(=O)O[C@@H]1C | 0.06 (≈ 0.037 µM) | -6.64 | 250 |  | 
4 | CO/N=C(\C(=O)N[C@@H]1C(=O)N2C(C(=O)O)=C(CSc3nc(=O)c(O)nn3C)CS[C@H]12)c1csc(N)n1 [CEFTRIAXONE] | 0.5 (≈ 0.902 µM) |  |  | -4.04 | 2500
5 | CO/N=C(\C(=O)NC1C(=O)N2C(C(=O)O)=C(COC(C)=O)CS[C@H]12)c1csc(N)n1 (single isomer, unassigned) [CEFOTAXIME] | 1 (≈ 2.2 µM) |  |  |  | 
